Literature values in US10265547B2, “Internal ultrasound gel” (SmileSonica Inc., priority 2012, dated 2019).

Key:
[1] = average adult of 70 kg
[2] = test system: Streptococcus mutans; conditions: xylitol in the range of 0.1% to 5%
[3] = test system: Streptococcus pneumonia; conditions: nasopharyngeal flora, Kontiokari et al. 1995
[4] = test system: clostridium butyricum; conditions: Makinen and Soderling 1981
[5] = test system: lactobacillus bulgaricus; conditions: Makinen and Soderling 1981
[6] = test system: saccharomyces cerevisiae; conditions: Makinen and Soderling 1981
[7] = test system: Escherichia coli; conditions: Makinen and Soderling 1981
[8] = test system: salmonella typhi; conditions: Makinen and Soderling 1981

SMILES | acceptable daily ingestion intake [1] [mg daily] | reduction of oral bacterial flora [2] | growth inhibition [3] | growth inhibition [4] | growth inhibition [5] | growth inhibition [6] | growth inhibition [7] | growth inhibition [8]
C/C=C/C=C/C(=O)[O-].[K+] [potassium sorbate] | 875 |  |  |  |  |  |  | 
OC[C@@H](O)[C@H](O)[C@@H](O)CO [xylitol] |  | reduce oral bacterial flora | inhibiting the growth | inhibiting the growth | inhibiting the growth | inhibiting the growth | inhibiting the growth | inhibiting the growth
